Results from paper PMC6009863, “Symmetric molecules with 1,4-triazole moieties as potent inhibitors of tumour-associated lactate dehydrogenase-A” (Journal of Enzyme Inhibition and Medicinal Chemistry, 2017).
pIC50: −log10 of the molar value. Like-named read-outs stand apart in the source and are kept apart here.

Assays:
LDHA [1] = tested on: LDHA; parameters: method as in PMID 22417091; conditions: NMR and SPR fragment based hit identification series; read-out: IC50 (LDHA inhibition); cited from earlier work
[2] = molecular target: T1, recombinant human LDHA protein (Homo sapiens, UniProt P00338); assay: LDHA inhibition assay (Lactate Dehydrogenase Assay Kit, colorimetric); type: biochemical; conditions: mean from three different assays, colorimetric assay measuring absorbance at 450 nm, errors ±5–10%
T1 construct: purchased Abcam ab93699
Method: All 15 symmetrical compounds were evaluated for their ability to inhibit LDHA, for the comparison galloflavin as a known isoform nonselective LDHA inhibitor[20] was used. Our choice of galloflavin was based on the fact that it is extensively studied as potent anticancer agents in recent years; additionally, galloflavin is already commercially available.
Lactate Dehydrogenase Assay Kit (Abcam, ab102526) and recombinant human LDHA protein (Abcam, ab93699) were used to assess the inhibitory effect of the tested compounds. First we generated a NADH standard curve for colorimetric detection by measuring the OD (450 nm) at different molar amounts of NADH. The linear regression equation of the curve was derivatized in Graphpad Prism. Tested compounds were dissolved in DMSO and their inhibitory activity was assessed at 140 and 300 μM strength. Galloflavin (Sigma, SML0776) at the same molar concentration was used as a known LDH inhibitor. The master reaction mix composed of LDH assay buffer and 10 ng human LDHA […] per reaction was prepared. Tested compounds were added and the final reaction volume was adjusted to 50 µL. Absorbance at 450 nm was taken after 2-3 minutes (T-initial) and continued every minute for 118 mins (T-final). The change in measurement over time (delta A450) was calculated as T-final minus T-initial. The amount of NADH generated by the assay between T-initial and T-final was deduced by comparing the A450 of each sample to the standard NADH standard curve. […]

LDHA [3] = tested on: LDHA; parameters: method as in PMID 30108883; conditions: docking-based virtual screening hit; read-out: IC50 (LDHA inhibition potency in vitro); cited from earlier work
LDHA [4] = tested on: LDHA; parameters: method as in PMID 23302067; conditions: fragment-based hit identification series; read-out: IC50 (LDHA inhibition); cited from earlier work

pIC50 [2]	SMILES	also measured
3.90	O=C(Cn1cc(-c2cncc(-c3cn(CC(=O)Nc4ccc(C(=O)O)cc4)nn3)c2)nn1)Nc1ccc(C(=O)O)cc1 [Compound 15b]	–
3.89	COc1cc(-c2cn(CC(=O)NCc3ccc(C(=O)O)cc3)nn2)cc(-c2cn(CC(=O)NCc3ccc(C(=O)O)cc3)nn2)c1 [Compound 21b]	–
3.80	O=c1oc2c(cc1O)oc(=O)c1cc(O)c(O)c(O)c12 [Galloflavin, reference compound]	–
3.78	COc1cc(-c2cn(CC(=O)Nc3ccc(S(N)(=O)=O)cc3)nn2)cc(-c2cn(CC(=O)Nc3ccc(S(N)(=O)=O)cc3)nn2)c1 [Compound 20a]	–
3.79	COc1cc(-c2cn(CC(=O)Nc3ccc([N+](=O)[O-])cc3)nn2)cc(-c2cn(CC(=O)Nc3ccc([N+](=O)[O-])cc3)nn2)c1 [Compound 20c]	–
3.76	O=C(Cn1cc(-c2cccc(-c3cn(CC(=O)Nc4ccc([N+](=O)[O-])cc4)nn3)c2)nn1)Nc1ccc([N+](=O)[O-])cc1 [Compound 7c]	–
3.87	NS(=O)(=O)c1ccc(NC(=O)Cn2cc(-c3cncc(-c4cn(CC(=O)Nc5ccc(S(N)(=O)=O)cc5)nn4)c3)nn2)cc1 [Compound 15a]	–
3.80	NS(=O)(=O)c1ccc(CNC(=O)Cn2cc(-c3cccc(-c4cn(CC(=O)NCc5ccc(S(N)(=O)=O)cc5)nn4)c3)nn2)cc1 [Compound 11a]	–

The remaining lines, values behind:

SMILES	pIC50 [2]	also measured
CCCSc1nc2ccc(NC(=O)CCNC(=O)CCCc3ccc(CC(C(=O)O)C(=O)O)cc3)cc2s1 [A]	–	pIC50 (LDHA [1]): 6.57
O=C(Cn1cc(-c2cccc(-c3cn(CC(=O)Nc4ccc(C(=O)O)cc4)nn3)c2)nn1)Nc1ccc(C(=O)O)cc1 [Compound 7b]	3.92	melting point: 291 to 292 °C
O=C(Cn1cc(-c2cncc(-c3cn(CC(=O)Nc4ccc([N+](=O)[O-])cc4)nn3)c2)nn1)Nc1ccc([N+](=O)[O-])cc1 [Compound 15c]	3.81	–
CCc1cc(=O)c(O)c([C@@H](CC(N)=O)c2cc3ccccc3n(CC(C)C)c2=O)o1 [C]	–	pIC50 (LDHA [3]): 6.48
COc1cc(-c2cn(CC(=O)NCc3ccc(S(N)(=O)=O)cc3)nn2)cc(-c2cn(CC(=O)NCc3ccc(S(N)(=O)=O)cc3)nn2)c1 [Compound 21a]	3.76	–
NS(=O)(=O)c1ccc(CNC(=O)Cn2cc(-c3cncc(-c4cn(CC(=O)NCc5ccc(S(N)(=O)=O)cc5)nn4)c3)nn2)cc1 [Compound 16a]	3.76	–
NS(=O)(=O)c1ccc(NC(=O)Cn2cc(-c3cccc(-c4cn(CC(=O)Nc5ccc(S(N)(=O)=O)cc5)nn4)c3)nn2)cc1 [Compound 7a]	3.89	–
O=C(Cn1cc(-c2cccc(-c3cn(CC(=O)NCc4ccc(C(=O)O)cc4)nn3)c2)nn1)NCc1ccc(C(=O)O)cc1 [Compound 11b]	3.81	–
COc1cc(-c2cn(CC(=O)Nc3ccc(C(=O)O)cc3)nn2)cc(-c2cn(CC(=O)Nc3ccc(C(=O)O)cc3)nn2)c1 [Compound 20b]	3.90	–
COc1cc(OC[C@@H](O)[C@@H](O)[C@H](O)[C@H](O)CNc2cc(F)cc(-c3ccc(C(=O)O)cn3)c2)c(Cl)cc1NC(=O)CSc1ccc(C(=O)O)cn1 [B]	–	pIC50 (LDHA [4]): 6.92
O=C(Cn1cc(-c2cncc(-c3cn(CC(=O)NCc4ccc(C(=O)O)cc4)nn3)c2)nn1)NCc1ccc(C(=O)O)cc1 [Compound 16b]	3.93	–
